Test results as given in patent US5646188A, “Polyamine derivatives of 1-aminoindan” (priority 1995, dated 1997).

Key:
NMDA receptor = conditions: cited from earlier work
[1] = test system: voltage-sensitive calcium channel; conditions: cited from earlier work
[2] = test system: Cultures of Dissociated Neonatal Rat Cerebellum; assay: Reversal of NMDA Induced Cell Death in cultures of dissociated neonatal rat cerebellum; type: cell-based; conditions: positive control, 0.01 micromoles + NMDA; cell survival minus the NMDA effect (30%)
Method: (§1) The cerebellum was aseptically dissociated from 6 or 7-day old rat pups and placed in a 15 ml sterile plastic conical tube containing 3 ml of Dulbecco's modified Eagle's medium (DMEM) with a high glucose concentration ([…]) and 2 mM (v/v) L-glutamine and an antibiotic antimitotic mixture. The cerebella were then dissociated after 20-25 passages through a sterile 13 gauge, 10 cm long stainless steel needle attached to a 5 ml syringe with an inserted 45 micrometer pore nylon sieve. The dissociated cells were centrifuged at 200 g for 5 minutes.
Cells were plated at a density of 200/mm^2 on poly-L-lysine coated surfaces. […] The plated cells were covered with enriched medium and incubated at 37° C. in an atmosphere of 5% CO2 in air and 97% humidity. […] Each test compound was tested in duplicate. Toxic-dose response was determined for each compound over a range from 0.005-1000 micromole. Four groups were run in each set of experiments;
I. Control, consisting of enriched media alone,
II. N-methyl-D-aspartate (NMDA, 1 mM for 3 hours) as the cytotoxic challenge,
III. Test compound plus NMDA, and
IV. Positive control, spermine, spermidine or putrescine (0.01 micromoles) plus NMDA.
Surviving cells in Culture are measured relative to control (100%) as described above. Percent protection is the Cell Survival for the test compound minus the NMDA effect. […] The Effective Protection was calculated as the percent of the Percent Protection (X) divided by the maximal protection value (e.g. X×100/70).

[3] = test system: ischemia induced nerve cell death; conditions: gerbils; Gilad G et al.; cited from earlier work
[4] = test system: pyramidal neurons throughout the CA1 layer of the anterior hippocampus; assay: Global Brain Ischemia In Gerbils; type: in vivo, mongolian gerbils; conditions: Meriones unguiculatus, Pyramidal neuron, ip, 336 h, read-out: PERCENT PROTECTION
Method: Male mongolian gerbils, aged 2.5-5 months, housed 4-8 in a cage, were supplied freely with food and water and maintained at 24° C. with a 12 hour day/night cycle.
For surgery the animals were anesthetized with halothane (1.5% in 100% O2) and the common carotid arteries exposed bilaterally through a midline ventral neck incision. Each artery was clamped for 5 minutes with aneurysm clips to produce global brain ischemia. The anesthesia was discontinued upon clamping. After 5 minutes the clamps were removed and the wound closed with skin clips.
For treatment, the test compound or vehicle was injected intra-peritoneally(ip) in a volume of 50 microlitres of solvent per 10 g body weight. The first injection was given two minutes after clamp removal, and thereafter daily for the next 2 post-operative days (total of 3 injections).
Seven groups each of 4-8 animals were compared:
I. Control; (sham- or unoperated and saline treated),
II. Vehicle treated, unoperated (when solvent is other than saline),
III. Ischemia--untreated or saline treated),
IV. Ischemia--vehicle treated (when solvent is other than saline),
V. Ischemia--Test compound treated, one sub-group per concentration tested,
VI. Ischemia and pentobarbital (40 mg/kg) as positive control).
Analysis of neuronal damage was performed 14 days post-ischemia by counting pyramidal neurons throughout the CA1 layer of the anterior hippocampus in […] thick (paraffin) coronal brain sections stained with hematoxylin and erosin.
Percent Protection values represent the fraction of hippocampi protected from ischemia in a group of animals treated with the stated dose of compound.

In Vitro Cell Toxicity = conditions: rat, cerebellum cell culture
Method: as §1, with “minutes. […] Cell viability was determined by the tryptan blue exclusion test.” for “minutes.”
Cells were plated at a density of 200/mm^2 on poly-L-lysine coated surfaces. Poly-L-lysine coated glass coverslips were prepared at least one hour in advance of plating by immersing sterile coverslips in sterile distilled water solution containing 15 microgram/ml poly-L-lysine, and washing in sterile water just prior. to use. […] After three days in culture, the media was replaced with media containing the desired test compound. Each test compound was tested in duplicate. Toxic-dose response was determined for each compound over a range from 0.005-1000 micromole. Four groups were run in each set of experiments;
Nerve cell survival was evaluated by phase contrast microscopy and tryptan blue staining after 24 hours.
Toxic dose-response curves were compiled using the protocol described above.

| SMILES | EAA antagonism / PCP site of NMDA receptor (NMDA receptor) | voltage-sensitive calcium channel blocking [1] | PERCENT PROTECTION [2] | protecting against ischemia induced nerve cell death [3] | responders at 10 mg/kg [4] | CC50 at 24 h (In Vitro Cell Toxicity) |
| --- | --- | --- | --- | --- | --- | --- |
| N=C(N)NCCCC(N)C(=O)NCCCNCCCN (stereo not drawn) [SFTX-33] | EAA antagonists capable of binding at the PCP site on the NMDA receptor | voltage-sensitive calcium channel blockers | – | – | – | – |
| NCCCNCCCCNCCCN [Spermine, spermine, reference compound] | – | – | 38% | activity | 60% | 2 µM |
